# Assay results as given in patent US8178496B2, “Photoreactive regulator of glutamate receptor function and methods of use thereof” (The Regents of the University of California, priority 2007, dated 2012).
# “Also recorded” adds a separate entry of the source.
# Key:
# [1] = tested on: cultured rat hippocampal neurons; test: Whole-cell current clamp recording of cultured hippocampal neurons; type: cell-based
# Procedure: (§1) Patch clamp recordings were carried out using an Axopatch 200A amplifier in the whole cell mode. HEK cells were voltage clamped at −60 mV and hippocampal neurons were current clamped at −65 mV. Pipettes had resistances 2-6 MΩ. For experiments in HEK cells, pipettes were filled with a solution containing (in mM): 145 CsCl, 5 EGTA, 0.5 CaCl2, 1.0 MgCl2 and 10 HEPES at pH7.2 (CsOH). The extracellular solution contained (in mM): 135 NaCl, 5.4 KCl, 0.9 MgCl2, 1.8 CaCl2, and 10 HEPES at pH 7.6 (NaOH). Cells were preincubated for 10 min in control solution containing 300 mg/l Concanavalin A type VI (Sigma) in order to block desensitization. For experiments in hippocampal neurons, pipettes were filled with a solution containing (in mM): 10 NaCl, 1 EGTA, 135 K-gluconate, 2.0 MgCl2, 10 HEPES and 2 Mg-ATP at pH7.4 (KOH). The extracellular solution contained (in mM): 138 NaCl, 1.5 KCl, 1.2 MgCl2, 2.5 CaCl2, 10 glucose and 10 HEPES at pH 7.3 (NaOH). […] Illumination was applied using a TILL Photonics Polychrome V monochromator through a 40×/0.60 W objective (power output: 4.8 mW/mm^2 at 500 nm and 1.8 mW/mm^2 at 380 nm, as measured with a Newport optical power meter). Data was recorded with pClamp software, which was also used to automatically control the monochromator by means of sequencing keys. […]
# wild-type iGluR6(Q) = biological target: T1, wild-type iGluR6(Q) (Homo sapiens, UniProt Q13002); test: Whole-cell voltage clamp recording in HEK293 cells expressing iGluR6(Q); type: cell-based
# T1 construct: expressed in transfected cells; host or cells: HEK293
# Procedure: (§2) HEK293 cells were plated at approximately 3×10^6 cells/ml on poly-L-lysine-coated glass coverslips (Deutsche Spiegelglas, Carolina Biological) and maintained in DMEM with 5% newborn calf serum, 0.2 mg/ml streptomycin, and 200 U/ml penicillin at 37° C. Cells were transiently transfected with various plasmids using lipofectamine 2000 (Invitrogen). The amount of total transfected ionotropic glutamate receptor-2 (iGluR2), iGluR5, and iGluR6 DNA and enhanced yellow fluorescent protein (EYFP) fusion DNA per 0.5 mL well was fixed at 0.7 μg and 0.3 μg, respectively. All recordings were carried out 24 to 48 h after transfection.
# (§3) Patch clamp recordings were carried out using an Axopatch 200A amplifier in the whole cell mode. HEK cells were voltage clamped at −60 mV and hippocampal neurons were current clamped at −65 mV. Pipettes had resistances 2-6 MΩ. For experiments in HEK cells, pipettes were filled with a solution containing (in mM): 145 CsCl, 5 EGTA, 0.5 CaCl2, 1.0 MgCl2 and 10 HEPES at pH7.2 (CsOH). The extracellular solution contained (in mM): 135 NaCl, 5.4 KCl, 0.9 MgCl2, 1.8 CaCl2, and 10 HEPES at pH 7.6 (NaOH). Cells were preincubated for 10 min in control solution containing 300 mg/l Concanavalin A type VI (Sigma) in order to block desensitization. For experiments in hippocampal neurons, pipettes were filled with a solution containing (in mM): 10 NaCl, 1 EGTA, 135 K-gluconate, 2.0 MgCl2, 10 HEPES and 2 Mg-ATP at pH7.4 (KOH). The extracellular solution contained (in mM): 138 NaCl, 1.5 KCl, 1.2 MgCl2, 2.5 CaCl2, 10 glucose and 10 HEPES at pH 7.3 (NaOH). L-Glutamate, DNQX, and compound 2 were applied as reported in text and figures with complete exchange of the bath solution occurring in less than 10 sec. Compound 2 was not pre-irradiated prior to perfusion, but the bath and coverslip were continuously under illumination as denoted in traces. Following complete exchange of the bath, perfusion of 2 was stopped prior to switching illumination wavelengths. Illumination was applied using a TILL Photonics Polychrome V monochromator through a 40×/0.60 W objective (power output: 4.8 mW/mm^2 at 500 nm and 1.8 mW/mm^2 at 380 nm, as measured with a Newport optical power meter). Data was recorded with pClamp software, which was also used to automatically control the monochromator by means of sequencing keys. The results are representative data from multiple cells in at least three independent cultures.
# iGluR = test: Rates of light-driven channel activation and deactivation (whole-cell patch clamp); type: cell-based; conditions: mean±s.e.m., n=3
# Procedure: as §1
# iGluR2(Q)flip-L483Y = test: Whole-cell voltage clamp recording in HEK293 cells expressing iGluR2; type: cell-based
# Procedure: as §2
# Patch clamp recordings were carried out using an Axopatch 200A amplifier in the whole cell mode. HEK cells were voltage clamped at −60 mV and hippocampal neurons were current clamped at −65 mV. Pipettes had resistances 2-6 MΩ. For experiments in HEK cells, pipettes were filled with a solution containing (in mM): 145 CsCl, 5 EGTA, 0.5 CaCl2, 1.0 MgCl2 and 10 HEPES at pH7.2 (CsOH). […] Illumination was applied using a TILL Photonics Polychrome V monochromator through a 40×/0.60 W objective (power output: 4.8 mW/mm^2 at 500 nm and 1.8 mW/mm^2 at 380 nm, as measured with a Newport optical power meter). Data was recorded with pClamp software, which was also used to automatically control the monochromator by means of sequencing keys. […]
# iGluR5(Q) = biological target: T2, iGluR5(Q) (Homo sapiens, UniProt P39086); test: Whole-cell voltage clamp dose-response in HEK293 cells expressing iGluR5(Q); type: cell-based
# T2 construct: expressed in transfected cells; host or cells: HEK293
# Procedure: as §2, §3
# [2] = Photostationary state determination by NMR with in situ irradiation; type: physicochemical; conditions: D2O, mean±s.e.m., n=3
# Procedure: Cis/trans photoisomerization of 2 was studied by ^1H NMR, with in situ irradiation of the sample using a Polychrome V system monochromator (TILL Photonics) containing a 150 W Xenon short arc lamp with an output range of 320-680 nm. The half-power bandwidth was 14 nm. A 500 μl aliquot of a 100 mM sample in D2O was prepared in a screw-capped 528-TR-7 NMR tube (Wilmad). A FT-600-UMT fiber optic cable (NA 0.39) (Thorlabs) was coupled at one end to the monochromator using a custom fitting and the other end inserted into the NMR tube a few millimeters above the solution. Each sample was irradiated at the desired wavelength for 30 minutes to reach the photostationary state and 480 scans were required to obtain reasonable signal-to-noise ratios. The output from the fiber optic cable between 340-480 nm ranged from 0.3-9.0 μW/cm^2. Data were processed by isolating aromatic cis-trans ^1H signals and summing their integrals to 1.0. All data were obtained in triplicate and averaged.
# T2 sequence (P39086 31-918): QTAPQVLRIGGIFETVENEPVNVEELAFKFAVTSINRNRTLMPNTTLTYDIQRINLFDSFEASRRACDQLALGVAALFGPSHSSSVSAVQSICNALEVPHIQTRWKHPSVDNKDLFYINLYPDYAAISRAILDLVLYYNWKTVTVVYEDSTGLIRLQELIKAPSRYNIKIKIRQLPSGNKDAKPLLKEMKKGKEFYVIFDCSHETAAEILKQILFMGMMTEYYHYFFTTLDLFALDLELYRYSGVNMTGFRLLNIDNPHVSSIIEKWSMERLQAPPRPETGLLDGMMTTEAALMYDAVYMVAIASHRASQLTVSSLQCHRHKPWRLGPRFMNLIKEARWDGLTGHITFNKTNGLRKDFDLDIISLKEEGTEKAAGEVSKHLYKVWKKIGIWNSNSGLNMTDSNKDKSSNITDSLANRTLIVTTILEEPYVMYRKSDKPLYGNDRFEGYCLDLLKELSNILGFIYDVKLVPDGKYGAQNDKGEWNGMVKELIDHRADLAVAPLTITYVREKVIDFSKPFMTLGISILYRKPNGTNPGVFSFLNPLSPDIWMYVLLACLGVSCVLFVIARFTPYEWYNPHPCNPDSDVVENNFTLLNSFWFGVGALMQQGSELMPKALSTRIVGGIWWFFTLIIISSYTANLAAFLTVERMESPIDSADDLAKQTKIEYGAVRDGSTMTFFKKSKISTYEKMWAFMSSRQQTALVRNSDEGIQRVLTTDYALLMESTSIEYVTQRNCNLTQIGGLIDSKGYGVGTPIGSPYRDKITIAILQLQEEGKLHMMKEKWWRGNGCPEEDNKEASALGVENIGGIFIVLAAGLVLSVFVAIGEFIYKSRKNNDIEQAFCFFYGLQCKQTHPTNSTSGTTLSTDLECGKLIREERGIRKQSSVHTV
# T1 sequence (Q13002 32-908): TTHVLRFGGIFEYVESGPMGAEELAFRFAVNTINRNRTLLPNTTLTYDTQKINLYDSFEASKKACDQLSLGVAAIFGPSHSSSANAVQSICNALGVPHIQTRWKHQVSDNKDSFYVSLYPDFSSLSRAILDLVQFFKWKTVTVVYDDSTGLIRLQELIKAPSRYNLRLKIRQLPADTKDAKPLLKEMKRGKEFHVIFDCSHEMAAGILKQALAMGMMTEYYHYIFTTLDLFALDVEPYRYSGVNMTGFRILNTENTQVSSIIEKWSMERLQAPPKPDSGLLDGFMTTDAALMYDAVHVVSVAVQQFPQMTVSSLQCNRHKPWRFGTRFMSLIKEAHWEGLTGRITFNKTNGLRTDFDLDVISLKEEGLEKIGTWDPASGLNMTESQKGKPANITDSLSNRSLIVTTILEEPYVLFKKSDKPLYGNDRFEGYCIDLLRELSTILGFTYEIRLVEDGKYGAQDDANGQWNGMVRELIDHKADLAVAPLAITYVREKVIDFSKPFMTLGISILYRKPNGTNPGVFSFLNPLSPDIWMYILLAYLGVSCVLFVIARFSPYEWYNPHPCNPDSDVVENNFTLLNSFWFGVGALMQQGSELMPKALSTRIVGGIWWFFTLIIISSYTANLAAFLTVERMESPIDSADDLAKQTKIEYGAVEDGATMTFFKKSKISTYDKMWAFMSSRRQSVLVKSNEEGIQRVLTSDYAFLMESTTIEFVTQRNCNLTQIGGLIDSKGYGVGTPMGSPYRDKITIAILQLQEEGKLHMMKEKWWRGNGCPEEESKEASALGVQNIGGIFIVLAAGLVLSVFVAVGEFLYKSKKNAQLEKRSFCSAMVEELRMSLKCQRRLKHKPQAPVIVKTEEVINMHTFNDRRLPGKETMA
smiles,measurement,setting,value
"O=C1N=c2cc([N+](=O)[O-])c([N+](=O)[O-])cc2=NC1=O [DNQX, 6,7-dinitroquinoxaline-2,3-dione, reference compound]",block of light activation with 2,"[1]; 10 μM DNQX together with 25 μM 2, 380 and 500 nm illumination",Pharmacological block of light activation
same,block of light activation with 2,"wild-type iGluR6(Q); 10 μM DNQX together with 50 μM 2, 380 and 500 nm illumination",Pharmacological block of light activation
same,block of the activity of 2,wild-type iGluR6(Q); HEK293 expressing iGluR6(Q),competitively blocked
N[C@@H](CC(C/C=C/c1ccc(/N=N/c2ccccc2)cc1)C(=O)O)C(=O)O (stereo partly shown) [Compound 2],light-controlled action potential firing,"[1]; 25 μM, current clamped at −65 mV, no ConA, switching between 380 and 500 nm","sufficient to trigger, and extinguish, sustained trains of action potentials"
same,rate of deactivation τoff-380nm,"iGluR; 380 nm, 1.8 mW/mm^2",250 ± 14 ms
same,rate of activation τon-500nm,"iGluR; 500 nm, 4.8 mW/mm^2",310 ± 15 ms
same,inward currents in the presence of 250 μM 2,"iGluR2(Q)flip-L483Y; 250 μM, 380 and 500 nm illumination",failed to produce inward currents; also recorded: no effect in either the trans- (500 nm) or cis-state (380 nm)
same,extent of iGluR6 channel activation,wild-type iGluR6(Q); 25 μM,only activated to a small extent
same,channel activation (inward currents) depending on wavelength of irradiation,"wild-type iGluR6(Q); HEK293, ConA 0.3 mg/mL pretreated, trans- versus cis-state",increased inward currents in the trans-relative to the cis-state
same,efficacy with respect to a 300 μM glutamate evoked response,iGluR5(Q); dose-response curves under 380 and 500 nm light,approximately half-maximal efficacy
same,selectivity at iGluR5 over iGluR6 receptors,"iGluR5(Q); dose-response curves, iGluR5(Q) versus iGluR6(Q)",high selectivity
same,reduction of apparent agonist affinity (EC50) relative to 500 nm,iGluR5(Q); under 380 nm light,~10 fold
same,EC50,"iGluR5(Q); under 500 nm illumination, read-out: apparent agonist affinity (EC50)",9 µM
same,photostationary state content of cis-2,[2]; 380 nm irradiation,76.3±0.3%
same,photostationary state content of trans-2,[2]; 500 nm irradiation,89±1%
"N[C@@H](CCC(=O)O)C(=O)O [Glu, reference compound]",inward current evoked by 300 μM Glu,iGluR2(Q)flip-L483Y; 300 μM,evokes a large inward current
